From PubChem BioAssay (NCI)
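48-hour exposure; five concentrations; linearly interpolated endpoints. GI50 marks 50% less growth. TGI is the concentration that stops growth completely.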

Columns and labels:
Assay in all cases: NCI tumour cell line growth inhibition, 48 h
HCT-15 colon = tested on: HCT-15 colon
MOLT-4 leukemia = tested on: MOLT-4 leukemia
PC-3 prostate = tested on: PC-3 prostate
SF-295 CNS = tested on: SF-295 CNS
UACC-62 melanoma = tested on: UACC-62 melanoma
SK-MEL-5 melanoma = tested on: SK-MEL-5 melanoma
RXF 393 renal = tested on: RXF 393 renal
LOX IMVI melanoma = tested on: LOX IMVI melanoma
U251 CNS = tested on: U251 CNS
HS 578T breast = tested on: HS 578T breast
HCT-116 colon = tested on: HCT-116 colon
TK-10 renal = tested on: TK-10 renal
SF-268 CNS = tested on: SF-268 CNS
MALME-3M melanoma = tested on: MALME-3M melanoma
T-47D breast = tested on: T-47D breast
SW-620 colon = tested on: SW-620 colon
NCI-H226 lung = tested on: NCI-H226 lung
HOP-62 NSCLC = tested on: HOP-62 NSCLC
SN12C renal = tested on: SN12C renal
MDA-MB-231 breast = tested on: MDA-MB-231 breast
OVCAR-3 ovarian = tested on: OVCAR-3 ovarian
KM12 colon = tested on: KM12 colon
NCI-H522 lung = tested on: NCI-H522 lung
NCI/ADR-RES ovarian = tested on: NCI/ADR-RES ovarian
SK-MEL-28 melanoma = tested on: SK-MEL-28 melanoma
M14 melanoma = tested on: M14 melanoma
MDA-MB-435 = tested on: MDA-MB-435
RPMI-8226 leukemia = tested on: RPMI-8226 leukemia
HL-60(TB) leukemia = tested on: HL-60(TB) leukemia
HCC-2998 colon = tested on: HCC-2998 colon
NCI-H23 lung = tested on: NCI-H23 lung
OVCAR-5 ovarian = tested on: OVCAR-5 ovarian
UACC-257 melanoma = tested on: UACC-257 melanoma
MCF7 breast = tested on: MCF7 breast
SR leukemia = tested on: SR leukemia
SK-OV-3 ovarian = tested on: SK-OV-3 ovarian
786-0 renal = tested on: 786-0 renal
OVCAR-8 ovarian = tested on: OVCAR-8 ovarian
COLO 205 colon = tested on: COLO 205 colon
SNB-19 CNS = tested on: SNB-19 CNS
BT-549 breast = tested on: BT-549 breast
EKVX NSCLC = tested on: EKVX NSCLC
CAKI-1 renal = tested on: CAKI-1 renal
ACHN renal = tested on: ACHN renal
HT29 colon = tested on: HT29 colon
SNB-75 CNS = tested on: SNB-75 CNS
K-562 leukemia = tested on: K-562 leukemia
UO-31 renal = tested on: UO-31 renal
A549 NSCLC = tested on: A549 NSCLC
OVCAR-4 ovarian = tested on: OVCAR-4 ovarian
A498 renal = tested on: A498 renal
IGROV1 ovarian = tested on: IGROV1 ovarian
CCRF-CEM leukemia = tested on: CCRF-CEM leukemia
SF-539 CNS = tested on: SF-539 CNS
HOP-92 NSCLC = tested on: HOP-92 NSCLC
NCI-H460 lung = tested on: NCI-H460 lung
DU-145 prostate = tested on: DU-145 prostate
SK-MEL-2 melanoma = tested on: SK-MEL-2 melanoma
MDA-N = tested on: MDA-N

## CC(=O)[C@H]1CCC/C=C/[C@@H]2C[C@H](O)C[C@H]2[C@H](O)/C=C/C(=O)O1
HCT-15 colon
  GI50: 1050 nM
  TGI: > 44700 nM
MOLT-4 leukemia
  GI50: 321 nM
PC-3 prostate
  GI50: 678 nM
  TGI: > 100000 nM
SF-295 CNS
  GI50: 4330 nM
  TGI: > 100000 nM
UACC-62 melanoma
  GI50: 498 nM
  TGI: > 100000 nM
SK-MEL-5 melanoma
  GI50: 163 nM
  TGI: 318 nM
RXF 393 renal
  GI50: 236 nM
  TGI: 742 nM
LOX IMVI melanoma
  GI50: 212 nM
  TGI: 633 nM
U251 CNS
  GI50: 913 nM
  TGI: > 100000 nM
HS 578T breast
  GI50: 2440 nM
  TGI: > 100000 nM
HCT-116 colon
  GI50: 337 nM
  TGI: 1180 nM
TK-10 renal
  GI50: 398 nM
  TGI: 3170 nM
SF-268 CNS
  GI50: 448 nM
  TGI: > 100000 nM
MALME-3M melanoma
  GI50: 270 nM
  TGI: 3400 nM
T-47D breast
  GI50: 1170 nM
  TGI: 3630 nM
SW-620 colon
  GI50: 344 nM
  TGI: 1560 nM
NCI-H226 lung
  GI50: 976 nM
  TGI: 2280 nM
HOP-62 NSCLC
  GI50: 2080 nM
  TGI: > 30200 nM
SN12C renal
  GI50: 2170 nM
  TGI: > 100000 nM
MDA-MB-231 breast
  GI50: 487 nM
  TGI: 2390 nM
OVCAR-3 ovarian
  GI50: 393 nM
  TGI: 5010 nM
KM12 colon
  GI50: 750 nM
  TGI: > 19700 nM
NCI-H522 lung
  GI50: 805 nM
  TGI: 2740 nM
NCI/ADR-RES ovarian
  GI50: 527 nM
  TGI: 3460 nM
SK-MEL-28 melanoma
  GI50: 261 nM
  TGI: 923 nM
M14 melanoma
  GI50: 467 nM
  TGI: > 25200 nM
MDA-MB-435
  GI50: 428 nM
  TGI: > 100000 nM
RPMI-8226 leukemia
  GI50: 360 nM
HL-60(TB) leukemia
  GI50: 261 nM
  TGI: 712 nM
HCC-2998 colon
  GI50: 1330 nM
  TGI: 5070 nM
NCI-H23 lung
  GI50: 527 nM
  TGI: 5580 nM
OVCAR-5 ovarian
  GI50: 2100 nM
  TGI: > 62600 nM
UACC-257 melanoma
  GI50: 332 nM
MCF7 breast
  GI50: 363 nM
  TGI: 5810 nM
SR leukemia
  GI50: 313 nM
  TGI: 86900 nM
SK-OV-3 ovarian
  GI50: 2430 nM
  TGI: > 31600 nM
786-0 renal
  GI50: 193 nM
  TGI: 392 nM
OVCAR-8 ovarian
  GI50: 982 nM
  TGI: > 100000 nM
COLO 205 colon
  GI50: 264 nM
  TGI: 631 nM
SNB-19 CNS
  GI50: 1640 nM
  TGI: > 100000 nM
BT-549 breast
  GI50: 657 nM
  TGI: > 100000 nM
EKVX NSCLC
  GI50: 932 nM
  TGI: > 100000 nM
CAKI-1 renal
  GI50: 645 nM
  TGI: > 23300 nM
ACHN renal
  GI50: 674 nM
  TGI: > 26400 nM
HT29 colon
  GI50: 253 nM
  TGI: 1440 nM
SNB-75 CNS
  GI50: 237 nM
  TGI: > 100000 nM
K-562 leukemia
  GI50: 579 nM
  TGI: > 100000 nM
UO-31 renal
  GI50: 296 nM
  TGI: > 100000 nM
A549 NSCLC
  GI50: 1170 nM
  TGI: > 100000 nM
OVCAR-4 ovarian
  GI50: 434 nM
  TGI: > 22200 nM
A498 renal
  GI50: 118 nM
  TGI: 1370 nM
IGROV1 ovarian
  GI50: 803 nM
  TGI: > 24000 nM
CCRF-CEM leukemia
  GI50: 395 nM
  TGI: > 62700 nM
SF-539 CNS
  GI50: 1010 nM
  TGI: > 100000 nM
HOP-92 NSCLC
  GI50: 4930 nM
  TGI: > 100000 nM
NCI-H460 lung
  GI50: 2670 nM
  TGI: > 100000 nM
DU-145 prostate
  GI50: 2990 nM
  TGI: > 100000 nM
SK-MEL-2 melanoma
  GI50: 689 nM
  TGI: 2910 nM

## Cc1c(CCCl)c(N=P(c2ccccc2)(c2ccccc2)c2ccccc2)n2c(nc3ccccc32)c1C#N
HCT-15 colon
  TGI: > 10000 nM
MOLT-4 leukemia
  TGI: > 10000 nM
PC-3 prostate
  TGI: > 10000 nM
SF-295 CNS
  TGI: > 10000 nM
UACC-62 melanoma
  TGI: > 10000 nM
SK-MEL-5 melanoma
  TGI: > 10000 nM
RXF 393 renal
  TGI: > 10000 nM
LOX IMVI melanoma
  TGI: > 10000 nM
TK-10 renal
  TGI: > 10000 nM
SF-268 CNS
  TGI: > 10000 nM
MALME-3M melanoma
  TGI: > 10000 nM
T-47D breast
  TGI: > 10000 nM
SW-620 colon
  TGI: > 10000 nM
HOP-62 NSCLC
  TGI: > 10000 nM
SN12C renal
  TGI: > 10000 nM
MDA-MB-231 breast
  TGI: > 10000 nM
KM12 colon
  TGI: > 10000 nM
MDA-N
  TGI: > 10000 nM
SK-MEL-28 melanoma
  TGI: > 10000 nM
M14 melanoma
  TGI: > 10000 nM
RPMI-8226 leukemia
  TGI: > 10000 nM
HCC-2998 colon
  TGI: > 10000 nM
NCI-H23 lung
  TGI: > 10000 nM
UACC-257 melanoma
  TGI: > 10000 nM
MCF7 breast
  TGI: > 10000 nM
SR leukemia
  TGI: > 10000 nM
SK-OV-3 ovarian
  TGI: > 10000 nM
786-0 renal
  TGI: > 10000 nM
OVCAR-8 ovarian
  TGI: > 10000 nM
COLO 205 colon
  TGI: > 10000 nM
EKVX NSCLC
  TGI: > 10000 nM
CAKI-1 renal
  TGI: > 10000 nM
HT29 colon
  TGI: > 10000 nM
SNB-75 CNS
  TGI: > 10000 nM
K-562 leukemia
  TGI: > 10000 nM
A549 NSCLC
  TGI: > 10000 nM
IGROV1 ovarian
  TGI: > 10000 nM
CCRF-CEM leukemia
  TGI: > 10000 nM
DU-145 prostate
  TGI: > 10000 nM
